ChEMBL document CHEMBL1136128, “3-(2-Benzyloxyphenyl)isoxazoles and isoxazolines: synthesis and evaluation as CFTR activators” (Bioorg Med Chem Lett, 2003)

Target: Cystic fibrosis transmembrane conductance regulator (Rattus norvegicus) (UniProt P34158)
Experiment: Percent activity against CFTR (cystic fibrosis transmembrane conductance regulator) in rat relative to UCCF-152(50 uM)

Sequence of Cystic fibrosis transmembrane conductance regulator (Rattus norvegicus) (P34158 whole entry): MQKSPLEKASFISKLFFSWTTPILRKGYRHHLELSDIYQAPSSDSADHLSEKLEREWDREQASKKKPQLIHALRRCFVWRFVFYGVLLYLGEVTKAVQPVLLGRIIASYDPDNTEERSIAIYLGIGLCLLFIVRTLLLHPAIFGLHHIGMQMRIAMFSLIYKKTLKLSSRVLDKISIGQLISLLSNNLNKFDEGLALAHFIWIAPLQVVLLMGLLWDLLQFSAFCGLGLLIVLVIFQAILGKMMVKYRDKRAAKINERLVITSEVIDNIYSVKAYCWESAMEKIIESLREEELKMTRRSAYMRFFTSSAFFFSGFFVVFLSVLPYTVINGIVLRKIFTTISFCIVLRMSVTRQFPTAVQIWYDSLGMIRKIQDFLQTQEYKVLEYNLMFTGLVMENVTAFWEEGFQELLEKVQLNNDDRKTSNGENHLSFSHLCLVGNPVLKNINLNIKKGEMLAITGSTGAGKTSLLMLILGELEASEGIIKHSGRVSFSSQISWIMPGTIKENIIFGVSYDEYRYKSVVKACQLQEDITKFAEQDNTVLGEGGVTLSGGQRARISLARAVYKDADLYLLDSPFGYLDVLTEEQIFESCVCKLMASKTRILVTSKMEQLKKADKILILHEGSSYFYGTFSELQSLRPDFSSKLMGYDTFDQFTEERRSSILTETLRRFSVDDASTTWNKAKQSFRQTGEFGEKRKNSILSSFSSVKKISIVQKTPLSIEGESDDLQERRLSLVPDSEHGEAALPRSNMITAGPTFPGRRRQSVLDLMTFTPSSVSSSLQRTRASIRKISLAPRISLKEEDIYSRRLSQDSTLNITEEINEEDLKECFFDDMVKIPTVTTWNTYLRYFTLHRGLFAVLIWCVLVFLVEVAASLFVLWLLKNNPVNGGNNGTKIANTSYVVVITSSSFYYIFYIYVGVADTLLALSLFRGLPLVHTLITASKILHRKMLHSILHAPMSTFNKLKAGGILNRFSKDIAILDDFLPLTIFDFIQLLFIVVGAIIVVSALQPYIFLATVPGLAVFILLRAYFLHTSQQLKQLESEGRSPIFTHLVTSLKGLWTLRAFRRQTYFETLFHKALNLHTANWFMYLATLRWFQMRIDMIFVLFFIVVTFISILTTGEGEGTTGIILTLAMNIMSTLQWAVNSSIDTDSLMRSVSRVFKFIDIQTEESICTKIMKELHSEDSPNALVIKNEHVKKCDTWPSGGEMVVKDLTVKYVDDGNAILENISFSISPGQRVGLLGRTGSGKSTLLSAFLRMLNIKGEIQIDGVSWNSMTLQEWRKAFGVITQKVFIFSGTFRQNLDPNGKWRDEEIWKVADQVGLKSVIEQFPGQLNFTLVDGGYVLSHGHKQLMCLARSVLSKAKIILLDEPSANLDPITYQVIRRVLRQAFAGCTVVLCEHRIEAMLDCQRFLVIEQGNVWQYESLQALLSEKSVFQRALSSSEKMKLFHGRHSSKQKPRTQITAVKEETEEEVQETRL

Going from COC(=O)C1CC(c2cc(Br)ccc2OCc2ccc(OC)cc2)=NO1 (configuration not stated) to COC(=O)C1CC(c2ccccc2OCc2ccc(OC)cc2)=NO1 (configuration not stated), the Activity rises from 41% to 64%.

COC(=O)C1CC(c2ccccc2OCc2cccc(OC)c2)=NO1 (configuration not stated) and COc1cccc(COc2ccccc2C2=NOC(CO)C2)c1 (configuration not stated) are the same in Activity: 29% for the first, 29% for the second.

Compared with COc1ccc(COc2ccc(Br)cc2-c2cc(CCl)on2)cc1, COc1ccc(COc2ccc(Br)cc2-c2cc(CO)on2)cc1 is higher in Activity: 9% for the first, 30% for the second.

Going from COC(=O)c1onc(-c2ccccc2OCc2ccc(Br)cc2)c1C(=O)OC to COC(=O)c1cc(-c2ccccc2OCc2ccc(Br)cc2)no1, the Activity rises from 21% to 32%.

First: ClCc1cc(-c2ccccc2OCc2ccc(Br)cc2)no1
Second: OCc1cc(-c2ccccc2OCc2ccc(Br)cc2)no1
The Activity of the first is lower: 25% for the first, 39% for the second.

Going from COc1cccc(COc2ccccc2C2=NOC(CCl)C2)c1 (configuration not stated) to COc1ccc(COc2ccccc2C2=NOC(CCl)C2)cc1 (configuration not stated), the Activity rises from 58% to 61%.

First: COC(=O)C1CC(c2ccccc2OCc2ccc(Br)cc2)=NO1 (configuration not stated)
Second: COc1ccc(COc2ccccc2C2=NOC(CO)C2)cc1 (configuration not stated)
The Activity of the first is lower: 48% for the first, 63% for the second.

Compared with CCCCc1cc(-c2ccccc2OCc2ccc(OC)cc2)no1, COc1ccc(COc2ccccc2-c2cc(CCO)on2)cc1 is higher in Activity: 8% for the first, 46% for the second.

Going from COc1cccc(COc2ccccc2-c2cc(CO)on2)c1 to COc1cccc(COc2ccccc2-c2cc(CCO)on2)c1, the Activity falls from 45% to 31%.

First: COc1ccccc1-c1cc(CO)on1
Second: COc1ccccc1-c1cc(CCl)on1
The Activity of the first is higher: 22% for the first, 8% for the second.

Going from COc1ccc(COc2cccc(-c3cc(CCl)on3)c2)cc1 to COc1ccc(COc2ccc(-c3cc(CCl)on3)cc2)cc1, the Activity rises from 2% to 3%.

Going from COc1ccc(COc2ccccc2-c2cc(CO)on2)cc1 to COc1ccc(COc2ccccc2-c2cc(CCl)on2)cc1, the Activity rises from 45% to 72%.

Compared with OCCc1cc(-c2ccccc2OCc2ccc(Br)cc2)no1, COCc1cc(-c2ccccc2OCc2ccc(Br)cc2)no1 is lower in Activity: 106% for the first, 10% for the second.

Target: Cystic fibrosis transmembrane conductance regulator (Rattus norvegicus) (UniProt P34158)
Experiment: Percent activity against CFTR (cystic fibrosis transmembrane conductance regulator) in rat relative to genistein(50 uM)

ClCc1cc(-c2ccccc2OCc2ccccc2)no1 was tested, and the Activity was 55%.
